Data reported in patent publication US20250375450A1, “SMARCA2/4 INHIBITION AS A STRATEGY TO TREAT TUMORS THAT HARBOR ABERRANT BAF ASSEMBLIES” (BOARD OF REGENTS, THE UNIVERSITY OF TEXAS SYSTEM, priority 2022, published 2025).
“Also recorded” adds a separate entry of the source.

How the values were obtained:
SMARCA2 = molecular target: T1, SMARCA2 (Homo sapiens, UniProt P51531); test: ATPase activity of SMARCA2 on different DNA/chromatin substrates (enzyme-coupled phosphate release assay); assay type: biochemical; settings: 5 μM AT-301; 147 bp nucleosomal DNA, 29 bp duplex DNA, NCP
T1 construct: The SMARCA2-1 gene (amino acids 437-1493) encompassing all domains; made in house; host or cells: expiSF9 insect cells (baculovirus, pFASTBac1)
T1 sequence (P51531 437-1493): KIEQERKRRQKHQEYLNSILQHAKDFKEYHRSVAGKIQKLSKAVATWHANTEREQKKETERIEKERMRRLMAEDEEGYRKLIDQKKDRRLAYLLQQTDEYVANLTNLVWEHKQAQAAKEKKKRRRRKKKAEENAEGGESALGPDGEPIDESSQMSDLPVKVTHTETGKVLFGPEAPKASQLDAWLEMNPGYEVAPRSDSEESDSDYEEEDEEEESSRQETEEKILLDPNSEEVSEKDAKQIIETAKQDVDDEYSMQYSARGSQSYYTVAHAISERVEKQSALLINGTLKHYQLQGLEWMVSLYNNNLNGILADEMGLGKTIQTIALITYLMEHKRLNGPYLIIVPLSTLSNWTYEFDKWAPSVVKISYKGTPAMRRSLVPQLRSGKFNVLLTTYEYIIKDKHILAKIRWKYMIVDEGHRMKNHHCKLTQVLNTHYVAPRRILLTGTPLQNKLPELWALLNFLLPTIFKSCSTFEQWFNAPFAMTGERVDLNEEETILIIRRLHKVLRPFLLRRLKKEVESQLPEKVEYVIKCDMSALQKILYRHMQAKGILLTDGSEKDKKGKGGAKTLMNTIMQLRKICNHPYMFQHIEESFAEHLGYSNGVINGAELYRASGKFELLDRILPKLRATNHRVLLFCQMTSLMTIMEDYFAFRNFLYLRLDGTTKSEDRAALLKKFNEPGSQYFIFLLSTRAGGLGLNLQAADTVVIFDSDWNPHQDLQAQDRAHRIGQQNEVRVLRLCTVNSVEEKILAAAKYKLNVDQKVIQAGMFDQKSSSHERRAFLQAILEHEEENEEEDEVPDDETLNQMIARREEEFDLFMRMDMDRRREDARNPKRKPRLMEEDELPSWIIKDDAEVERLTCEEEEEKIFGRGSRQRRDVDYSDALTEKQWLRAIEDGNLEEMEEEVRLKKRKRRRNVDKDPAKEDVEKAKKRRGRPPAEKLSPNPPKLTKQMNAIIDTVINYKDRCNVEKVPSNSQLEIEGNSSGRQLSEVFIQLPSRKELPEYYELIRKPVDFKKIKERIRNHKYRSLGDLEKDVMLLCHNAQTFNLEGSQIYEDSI
Source text: FIG. 9A-C show representative data illustrating that AT-301 attenuates the ATPase activity of SMARCA2 in different DNA/chromatin substrates.
In brief, the disclosed ATPase assay is based on the inorganic phosphate (Pi) release from the enzymatic reaction, wherein the substrate 2-amino-6-mercapto-7-methylpurine ribose (MESG) is converted by purine phosphorylase (PNP) to ribose 1-phosphate and 2-amino-6-mercapto-7-methylpurine. This conversion changes the spectrophotometric shift of MSEG absorbance from 330 nm to 360 nm (FIG. 1C and FIG. 1D).
SMARCA2 can interact with nucleosomal, extra nucleosomal DNA, and a DNA wrapped around the histone octamer. These substrates were prepared, and the ATPase activity of SMARCA2 on these substrates were evaluated in the presence and absence of AT-301. Specifically, as shown in FIG. 9A-C, mononucleosome core particles (NCP) were reconstituted from purified histone octamer and 147 bp widom nucleosomal DNA. An electromobility shift assay (EMSA) was used to monitor the direct binding of SMARCA2 to NCP. […] The ATPase activity of SMARCA2 was also evaluated on alternative substrates (a 29-mer duplex DNA, 147 bp nucleosomal DNA, and reconstituted NCP).

[1] = tested on: alveolar Rhabdomyosarcoma cell lines; test: Growth of Rhabdomyosarcoma cell lines, live cell imaging confluency; assay type: cell-based
Experimental: Briefly, human SMARCA2 was purified, and a high-throughput screen (HTS) of 40,000 compounds was conducted. […] In brief, cells were grown in RPMI media supplemented with 10% Fetal bovine serum (FBS), 1× penicillin, and streptomycin antibiotics. Cells were placed in an incubator with 5% C02 and 50% humidity. When cells reached 90% confluency, cells were harvested, washed twice in 1×PBS, counted using trypan blue exclusion method. Then cells were seeded in 96-well plates (duplicates, n=2) at the density of 20,000 cells per well. Allowed them to attach to the bottom of the well for 1 to 2 hrs and treated with different concentration of AT-301 compound starting at highest concentration of 10 micromolar to serial dilution of the compound to the lowest concentration of 0.039 micromolar. Cells treated with only DMSO were also included as negative control. Cells were monitored for 72 hrs. by live cell imaging method (Incucyte S3) taking images every two hours. The confluency was determined and plotted against time (hours) by using Prism software.
Assays were performed as detailed above for FIG. 4A-E.

H1975 = test: Cell proliferation assay and IC50 measurement (PrestoBlue); assay type: cell-based; settings: Homo sapiens, NCI-H1975, PrestoBlue cell viability
Experimental: (§1) FIG. 10A-C show representative data illustrating that AT-301 kills Ewing's, RMS, GBM, AML, and other cancer cells. Cell lines were treated with serial dilutions (2×) of AT-301, and IC50 values of each cell line were determined using PrestoBlue dye for cell viability following manufacturer's protocol (Invitrogen, A13261). See also Table 3.
(§2) Jurkat, Molt-4, RH4, RH30, BT40, GBM2, ES3, ES6, ES7, HC827, H1975, H2030 cells: RPMI 1640, 10% FBS, Penicillin (100 units/mL) and streptomycin (100 μg/mL) in the presence of 5% CO2.
(§3) Proliferation of adherent cells was determined on the IncuCyte live-cell imaging system (Essen BioScience). Cells were seeded on clear bottom 96 well plates at a seeding density of 2000 cells/well. Cells were allowed to attach overnight after which the medium was replaced with fresh medium containing serial dilutions (2×) of the compound or DMSO control. Percent confluence was calculated by the IncuCyte software from four different images per well from at least three replicate wells. For non-adherent cells, the 96-well plates were coated with poly-L-lysine before seeding to facilitate cell adhesion. At the end of the assay, dose-dependent cell viability was determined by staining the cells with PrestoBlue (Invitrogen, A13261) as per manufacturer's instructions and IC50 was calculated (FIG. 10).

RH30 = test: as above; assay type: cell-based; settings: PrestoBlue cell viability
Experimental: as §1, §2, §3

Jurkat = test: as above; assay type: cell-based; settings: Homo sapiens, PrestoBlue cell viability
Experimental: as §1, §2, §3

Molt4 = test: as above; assay type: cell-based; settings: Homo sapiens, MOLT-4, PrestoBlue cell viability
Experimental: as §1, §2, §3

ES3 = test: as above; assay type: cell-based; settings: PrestoBlue cell viability
Experimental: as §1, §2, §3

GBM2 = test: as above; assay type: cell-based; settings: PrestoBlue cell viability
Experimental: as §1, §2, §3

ES6 = test: as above; assay type: cell-based; settings: PrestoBlue cell viability
Experimental: as §1, §2, §3

RH4 = test: as above; assay type: cell-based; settings: PrestoBlue cell viability
Experimental: as §1, §2, §3

ES7 = test: as above; assay type: cell-based; settings: Homo sapiens, PrestoBlue cell viability
Experimental: as §1, §2, §3

H2030 = test: as above; assay type: cell-based; settings: Homo sapiens, NCI-H2030, PrestoBlue cell viability
Experimental: as §1, §2, §3

HCC827 = test: as above; assay type: cell-based; settings: Homo sapiens, PrestoBlue cell viability
Experimental: as §1, §2, §3

BT40 = test: as above; assay type: cell-based; settings: PrestoBlue cell viability
Experimental: as §1, §2, §3

BAF complex in RH4 cells = test: BAF complex assembly, size-exclusion chromatography of nuclear lysates and immunoblot; assay type: cell-based; settings: 7.5 μM AT-301
Source text: (§4) FIG. 12A-D show representative data illustrating that the assembly of BAF complex is perturbed by AT-301 inhibitor without perturbing oncogenic fusion protein levels. Referring to FIG. 12A and FIG. 12B, immunoblots of RH41 (FIG. 12A) and ES7 (FIG. 12B) cells after 4 and 12 hrs of treatment with AT-301 or DMSO. FOXO1 and FLI1 expression remains unchanged upon AT-301 treatment. Referring to FIG. 12C and FIG. 12D, gel filtration chromatography of ES3 (FIG. 12C) and RH41 (FIG. 12D) cell nuclear lysates after BAF-X-1 treatment are shown. Lysates were passed through a Sephacryl S-400 HR column and every fourth fraction was immuno-blotted for the proteins indicated with fraction numbers above the lanes.
(§5) Next, whether AT-301 can perturb the assembly of BAF complex was evaluated using size-exclusion chromatography (SEC) method. Cells were cultured on 15 cm petri-dishes. Nuclei were extracted and lysed. A HiPrep 16/60 Sephacryl S-400 HR column (GE) was equilibrated with a running buffer and 4 mg of the lysate was loaded on to the column. Fractions of 1 mL were eluted at an elution rate of 0.8 mL/min. Eluted proteins were analyzed by concentrating and immunoblotting every fourth fraction.

BAF complex in ES3 cells = test: as above; assay type: cell-based; settings: 7.5 μM AT-301
Source text: as §4, §5

IC50 (H1975): 5.31 µM | IC50 (Jurkat): 2.81 µM | IC50 (Molt4): 4.39 µM | IC50 (H2030): 6.26 µM | IC50 (HCC827): 5.21 µM | IC50 (BT40): 3.49 µM
SMILES: Clc1ccc(CNc2nc(NC3CCCC3)nc3ccccc23)cc1Cl [AT-301, N^2-cyclopentyl-N^4-(3,4-dichlorobenzyl)quinazoline-2,4-diamine]
ATPase activity of SMARCA2 on different substrates (SMARCA2): uniformly reduced; also recorded: significantly attenuated | Growth of Rhabdomyosarcoma cell lines ([1]; 2 other lines): moderately attenuated the growth | Growth of alveolar Rhabdomyosarcoma cell lines ([1]; 4 alveolar Rhabdomyosarcoma cell lines): attenuate the growth; also recorded: strongly attenuated the growth | IC50 (RH30): 2.96 µM | IC50 (ES3): 5.21 µM | IC50 (GBM2): 3.54 µM | IC50 (ES6): 2.84 µM | IC50 (RH4): 6.54 µM | IC50 (ES7): 4.83 µM | Assembly of BAF complexes (BAF complex in RH4 cells): perturbed assembly | Assembly of BAF complexes (BAF complex in ES3 cells): perturbed assembly
